Measured values taken from US12383526B2, “Optimized sigma-1 agonist method of responder selection and treatment” (ANAVEX LIFE SCIENCES CORP., priority 2018, dated 2025).
Marks after values point to notes of the source that are not given here.

System: subjects with mild-to-moderate AD
Assay: ADCS-ADL (Activities of Daily Living) change from baseline, 57-week Phase 2a study and 208-week extension study
Type: in vivo, human
Parameters: key to unadjusted change in ADCS-ADL score, Mean ± Std. Dev: change from baseline on ADCS-ADL scale 0–78, higher = greater function
Details: for ADCS-ADL Cohen's d: week 57, compared to standard of care
Description: The present study integrates and analyzes data and samples from two consecutive clinical trials: 57-week study and 208-week study. 57-week study was a multicenter Phase 2a clinical trial of the drug ANAVEX2-73 that recruited a sample of 32 subjects with mild-to-moderate AD. It consisted of two parts: Part A was a simple randomized, open-label, two-period, cross-over, adaptive trial lasting up to 5 weeks. Each period involved one specific administration route and two possible dose levels: in one period the oral dose (30 mg or 50 mg) was administrated and in the other period an intravenous (IV) form (3 mg or 5 mg) was administered, making a total of 8 possible dose administration schemes in Part A (details available in FIG. 2A). The two periods were separated by a wash-out period of 12 days where no dose was given.
Part B, following immediately after Part A, was an open-label extension of the oral daily dose for an additional 52 weeks. The primary endpoint of 57-week study was to establish the safety and tolerability of the drug. Secondary endpoints aimed at establishing the relationship between dosing regimen and pharmacodynamics-exploratory efficacy outcomes of cognition and function. Cognition was assessed by the Mini Mental State Examination (MMSE), while functional abilities by the Alzheimer's Disease Co-operative Study—Activities of Daily Living Inventory (ADCS-ADL). Additional cognitive measures included the Cogstate Brief Battery (CBB), and functional measures of Electroencephalography and Event-Related Potential (EEG and ERP). Part B continued an adaptive oral administration scheme. Table 12 summarizes mean oral dose administration during the 57-week study study.
Due to favorable safety and tolerability profile of the 57-week study (Table 2), and in response to requests from patients and caregivers, a 208-week open-label extension study (208-week study) was carried out immediately after completion of 57-week study Part B. 208-week study enrolled the 24 subjects who completed Part B and applied similarly an adaptive daily oral administration scheme. ANAVEX2-73-003 involves continuous evaluation of safety and efficacy as measured by the MMSE and ADCS-ADL. At week 148 (interim time point for analyses), data on the subjects remaining in the study (n=21) was analyzed for efficacy outcomes. This report was drafted using data available at week 148, while ANAVEX2-73-003 is still ongoing.
Exploratory clinical efficacy in this study was defined as change from baseline of each patient's cognitive (MMSE) and functional ability (ADCS-ADL) scores. The MMSE57 is a widely used, validated instrument in clinical AD research, including as a cognitive outcome measure in drug trials. The range of the scale is from 0 to 30, with a higher score indicating higher cognitive function. The ADCS-ADL58 is undertaken in a structured caregiver interview format and assesses performance in activities of daily living of patients with AD. The scale is from 0 to 78, with a higher score indicating greater function. The ADCS-ADL has shown to have good test-retest reliability 59. The MMSE and the ADCS-ADL were assessed during pre-specified clinical site visits across 14 different time points during the 57-week study (Weeks 0 and 5 in Part A; Weeks 17, 31, 41, 53, and 57 in Part B), and 208-week study (Weeks 70, 83, 96, 109, 122, 135, and 148) studies.
Corresponding Delta scores were calculated using the difference between values at each visit and at baseline for each individual patient, with a focus on Week 57. In addition, to lower the impact of noise in MMSE and ADCS-ADL scores, a Slope was estimated using a linear regression across all available time points for each individual patient. The derived scores describe the progression of exploratory efficacy data from baseline at several specific time points (Deltas) and over a set period of time (Slope). […]

With `CN(C)CC1CCOC1(c1ccccc1)c1ccccc1.Cl` (centres unmarked) [ANAVEX2-73, tetrahydro-N,N-dimethyl-2,2-diphenyl-3-furanmethanamine hydrochloride] the “unadjusted change in ADCS-ADL score, Mean ± Std. Dev” value (“unadjusted change in ADCS-ADL score” for short) (Group 3 (n 11), Week 70) was −5.09 ± 10.70, the “unadjusted change in ADCS-ADL score” value (Group 3 (n 11), Week 83) was −5.55 ± 12.65 and the “unadjusted change in ADCS-ADL score” value (Group 3 (n 11), Week 96) was −8.64 ± 16.10. The “unadjusted change in ADCS-ADL score” value (Group 3 (n 11), Week 109) was −9.45 ± 15.13, the “unadjusted change in ADCS-ADL score” value (Group 3 (n 11), Week 122) was −9.27 ± 12.17 and the “unadjusted change in ADCS-ADL score” value (Group 3 (n 11), Week 135) was 11.09 ± 16.16. The “unadjusted change in ADCS-ADL score” value (Group 3 (n 11), Week 148) was −14.73 ± 17.70, the “unadjusted change in ADCS-ADL score” value (Group 4 (n 14), Week 148) was −19.43 ± 18.50 and the “unadjusted change in ADCS-ADL score” value (Group 4 (n 15), Week 109) was −12.60 ± 15.00. The “unadjusted change in ADCS-ADL score” value (Group 4 (n 15), Week 122) was −15.20 ± 17.30, the “unadjusted change in ADCS-ADL score” value (Group 4 (n 16), Week 0) was 0.00 ± 0.00 and the “unadjusted change in ADCS-ADL score” value (Group 4 (n 16), Week 5) was −1.25 ± 5.54. For the same compound, the “unadjusted change in ADCS-ADL score” value (Group 4 (n 16), Week 17) was −0.44 ± 3.42, the “unadjusted change in ADCS-ADL score” value (Group 4 (n 16), Week 31) was −2.31 ± 6.00 and the “unadjusted change in ADCS-ADL score” value (Group 4 (n 16), Week 41) was −3.31 ± 7.03. For the same compound, the “unadjusted change in ADCS-ADL score” value (Group 4 (n 16), Week 53) was 3.81 ± 7.24, the “unadjusted change in ADCS-ADL score” value (Group 4 (n 16), Week 57) was −3.38 ± 7.60 and the “unadjusted change in ADCS-ADL score” value (Group 4 (n 16), Week 70) was −6.94 ± 10.87. For the same compound, the “unadjusted change in ADCS-ADL score” value (Group 4 (n 16), Week 96) was −13.25 ± 16.77, the “unadjusted change in ADCS-ADL score” value (Group 4 (n 16), Week 135) was −19.12 ± 19.67 and the “unadjusted change in ADCS-ADL score” value (Group 5 (n 4), Week 5) was −3.25 ± 11.30. The “unadjusted change in ADCS-ADL score” value (Group 5 (n 4), Week 31) was −8.75 ± 3.30, the “unadjusted change in ADCS-ADL score” value (Group 5 (n 4), Week 122) was −27.75 ± 12.26 and the “unadjusted change in ADCS-ADL score” value (Group 5 (n 5), Week 0) was 0.00 ± 0.00. For the same compound, the “unadjusted change in ADCS-ADL score” value (Group 5 (n 5), Week 17) was −4.20 ± 4.09, the “unadjusted change in ADCS-ADL score” value (Group 5 (n 5), Week 41) was 6.00 ± 3.00 and the “unadjusted change in ADCS-ADL score” value (Group 5 (n 5), Week 53) was −10.00 ± 6.78. The “unadjusted change in ADCS-ADL score” value (Group 5 (n 5), Week 57) was −11.20 ± 8.93, the “unadjusted change in ADCS-ADL score” value (Group 5 (n 5), Week 70) was −14.80 ± 9.63 and the “unadjusted change in ADCS-ADL score” value (Group 5 (n 5), Week 83) was −13.20 ± 11.52. The “unadjusted change in ADCS-ADL score” value (Group 5 (n 5), Week 96) was −18.60 ± 11.67, the “unadjusted change in ADCS-ADL score” value (Group 5 (n 5), Week 109) was −19.20 ± 13.31 and the “unadjusted change in ADCS-ADL score” value (Group 5 (n 5), Week 135) was −24.00 ± 14.65. The “unadjusted change in ADCS-ADL score” value (Group 5 (n 5), Week 148) was −26.00 ± 16.17, the “unadjusted change in ADCS-ADL score” value (Group 6 (n 2), Week 5) was 0.50 ± 9.19 and the “unadjusted change in ADCS-ADL score” value (Group 6 (n 2), Week 31) was −10.50 ± 3.54. For the same compound, the “unadjusted change in ADCS-ADL score” value (Group 6 (n 3), Week 0) was 0.00 ± 0.00, the “unadjusted change in ADCS-ADL score” value (Group 6 (n 3), Week 17) was −5.00 ± 5.20 and the “unadjusted change in ADCS-ADL score” value (Group 6 (n 3), Week 41) was −6.67 ± 4.04. For the same compound, the “unadjusted change in ADCS-ADL score” value (Group 6 (n 3), Week 53) was −12.67 ± 8.02, the “unadjusted change in ADCS-ADL score” value (Group 6 (n 3), Week 57) was −14.67 ± 10.50 and the “unadjusted change in ADCS-ADL score” value (Group 6 (n 3), Week 70) was −18.00 ± 12.12. For the same compound, the “unadjusted change in ADCS-ADL score” value (Group 6 (n 3), Week 83) was −17.00 ± 14.11, the “unadjusted change in ADCS-ADL score” value (Group 6 (n 3), Week 96) was −26.00 ± 8.19 and the “unadjusted change in ADCS-ADL score” value (Group 6 (n 3), Week 109) was 25.33 ± 14.47. The “unadjusted change in ADCS-ADL score” value (Group 6 (n 3), Week 122) was −32.67 ± 8.96, the “unadjusted change in ADCS-ADL score” value (Group 6 (n 3), Week 135) was −32.00 ± 13.75 and the “unadjusted change in ADCS-ADL score” value (Group 6 (n 3), Week 148) was −34.33 ± 15.82. For the same compound, the “favorable difference in adjusted ADCS-ADL, higher concentration arm compared with low/medium arm” value (MMRM-LME, over 148 weeks) was 88%, the “effect of higher concentrations on Delta ADCS-ADL scores” value (plasma concentration groups, week 57, p=0.03) was “improved” and the “ADCS-ADL Cohen's d” value (Absence of COMT_L146fs variant & Baseline MMSE ≥20, N 11) was 0.89**. The “ADCS-ADL Cohen's d” value (Absence of COMT_L146fs variant, N 16) was 0.57*, the “ADCS-ADL Cohen's d” value (Absence of SIGMAR1_Q2P variant, N 16) was 0.43 and the “ADCS-ADL Cohen's d” value (Absence of SIGNAR1_Q2P variant & Baseline MMSE ≥20, N 11) was 0.76*. The “ADCS-ADL Cohen's d” value (All, N 21) was 0.18 and the “ADCS-ADL Cohen's d” value (Baseline MMSE ≥20, N 13) was 0.66*.
